Results taken from PMC11123956, “Nobiletin Stimulates Adrenal Hormones and Modulates the Circadian Clock in Mice” (Nutrients, 2024).

Columns and labels:
PDE2A = target: T1, PDE2A (Homo sapiens, UniProt O00408); assay: PDE enzyme  assay, PDE2A; assay type: biochemical
T1 construct: purchased Eurofins Panlabs Discovery Services Taiwan, Ltd. (contract assay); host or cells: insect Sf9 cells
Description: Enzyme assays for various subtypes of PDE (Table 1 and Figure 4) were conducted by Eurofins Panlabs Discovery Services Taiwan, Ltd. (New Taipei City, Taiwan). In the assays, five or six concentrations of nobiletin over five or six orders of magnitude were examined in experiments conducted in duplicate to determine the IC50 (concentration of nobiletin exerting half-maximal inhibition of control-specific activity). IC50 values were determined by nonlinear least squares regression analysis using MathIQTM (ID Business Solutions Ltd., Woking, UK). FAM-cAMP, FAM-cGMP (0.1 μM), and 100 μM [^3H]cGMP + cGMP were used for the substrate in the human recombinant insect Sf9 cells or Bovine retinal rod outer segments depending on the PDE subtype. The spectrofluorometric quantitation of fluorescein-AMP-IMAP, fluorescein-GMP-IMAP, or [^3H] guanosine was used depending on the PDE subtype. A known […] of each PDE was used as the positive control.

serum adrenaline = assay: Serum adrenaline ELISA after i.p. injection; assay type: in vivo, mice; conditions: intraperitoneal injection, 100 mg/kg
Description: Male C57BL/6J mice (7 weeks old) were purchased from Charles River Japan (Kanagawa, Japan) and used for the serum hormone assay and RT-PCR. Male ICR mice were purchased from Tokyo Laboratory Animals Science Co., Ltd. (Tokyo, Japan), and female PERIOD2::LUCIFERASE (PER2::LUC) knock-in mice (ICR background) bred at Waseda University were used for blood glucose measurements and in vivo imaging assays, respectively. The mice were all housed under conditions of controlled temperature (23 °C ± 3 °C), humidity (50% ± 20%), and lighting (lights on from 07:00 to 19:00 at Taisho Pharmaceutical Co., Ltd. or from 08:00 to 20:00 at Waseda University). In the 24 h cycle, Zeitgeber time 0 (ZT0) was designated as the time when the lights were turned on, and ZT12 was designated as the time when the lights were turned off. […]
Serum corticosterone, adrenaline, and adreno-corticotropic hormone (ACTH) levels, and corticotropin releasing factor (CRF) in the hypothalamus, were measured using enzyme-linked immunosorbent assay (ELISA). […] Blood glucose levels were measured using a Glucose PILOT kit (Aventir Biotech, LLC, Carlsbad, CA, USA). The range of blood glucose that could be precisely measured with the kit was 20–600 mg/dL. […]

CRF in the hypothalamus = CRF in the hypothalamus ELISA; assay type: in vivo, mice; conditions: an hour after injection (50 or 100 mg/kg)
Description: Serum corticosterone, adrenaline, and adreno-corticotropic hormone (ACTH) levels, and corticotropin releasing factor (CRF) in the hypothalamus, were measured using enzyme-linked immunosorbent assay (ELISA). A corticosterone ELISA kit (Cayman Chemical Company, Ann Arbor, MI, USA), an adrenaline ELISA kit (Abcam, Cambridge, UK), an ACTH ELISA kit (Phoenix Pharmaceuticals Inc., Burlingame, CA, USA), and a CRF ELISA kit (Yanaihara Institute Inc., Shizuoka, Japan) were used. Assays were conducted according to the manufacturer’s instructions. Blood samples were collected from the mice at ZT4, 5, and 7 after the administration of nobiletin at ZT3 (10 mg/kg and 100 mg/kg, in Figure 3A,B). Blood glucose levels were measured using a Glucose PILOT kit (Aventir Biotech, LLC, Carlsbad, CA, USA). The range of blood glucose that could be precisely measured with the kit was 20–600 mg/dL. Before measurement, we administered nobiletin (100 mg/kg body weight) to the mice, after 4 h fasting. Blood was collected from the tail vein of each mouse for measurement. The measurements were conducted at 0, 15, 30, 45, 60, and 90 min after reagent administration in Figure 3C. Samples were collected one hour after nobiletin treatment (50 or 100 mg/kg; Figure 3D,E), or 2 or 4 h after treatment in Figure 3F. […]

T1 sequence (O00408 whole entry): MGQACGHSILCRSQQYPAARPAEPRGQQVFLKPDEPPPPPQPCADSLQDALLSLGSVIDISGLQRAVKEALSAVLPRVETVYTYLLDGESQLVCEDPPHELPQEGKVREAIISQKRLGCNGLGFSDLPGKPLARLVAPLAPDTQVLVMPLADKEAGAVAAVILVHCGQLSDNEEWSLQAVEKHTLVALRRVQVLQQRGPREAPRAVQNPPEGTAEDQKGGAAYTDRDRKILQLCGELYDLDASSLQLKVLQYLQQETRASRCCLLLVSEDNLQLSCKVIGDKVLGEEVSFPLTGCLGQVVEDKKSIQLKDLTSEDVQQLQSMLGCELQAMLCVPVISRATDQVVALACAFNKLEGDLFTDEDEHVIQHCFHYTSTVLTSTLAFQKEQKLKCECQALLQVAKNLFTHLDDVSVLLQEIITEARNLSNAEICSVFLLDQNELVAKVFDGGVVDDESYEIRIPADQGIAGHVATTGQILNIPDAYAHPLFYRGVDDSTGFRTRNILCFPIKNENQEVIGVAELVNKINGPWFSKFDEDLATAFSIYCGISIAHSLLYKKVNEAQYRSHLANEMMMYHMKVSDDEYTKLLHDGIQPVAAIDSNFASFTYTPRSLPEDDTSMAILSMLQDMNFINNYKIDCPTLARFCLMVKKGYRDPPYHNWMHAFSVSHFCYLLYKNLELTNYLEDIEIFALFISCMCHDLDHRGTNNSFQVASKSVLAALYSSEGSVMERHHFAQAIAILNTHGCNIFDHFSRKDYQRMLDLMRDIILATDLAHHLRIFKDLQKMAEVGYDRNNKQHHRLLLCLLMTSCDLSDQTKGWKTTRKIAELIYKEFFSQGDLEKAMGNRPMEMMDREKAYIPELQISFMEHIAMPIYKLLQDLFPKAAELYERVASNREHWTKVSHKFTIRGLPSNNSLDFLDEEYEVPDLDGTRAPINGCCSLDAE

`COc1ccc(-c2cc(=O)c3c(OC)c(OC)c(OC)c(OC)c3o2)cc1OC` [nobiletin] was tested, and the IC50 (PDE2A) was 9.91 µM, the adrenaline secretion (serum adrenaline) was “significantly and potently stimulated” and the “CRF in the hypothalamus” value (CRF in the hypothalamus) was “did not change significantly”.
